This is an account of results in patent US11059800B2, “Dehydroleucodine derivatives and uses thereof” (Bioventures, LLC, priority 2013, dated 2021).

In series [1] the test system is Kasumi-1. The experiment in a line: Cytotoxicity, annexin V/7-AAD viability by flow cytometry, Kasumi-1. It counts as cell-based, human. The conditions noted are these: Kasumi-1, 48 hours, drug range tested 1.25-160 μM. As for the experimental part:
(§1) In order to assess the structure-activity relationship of DHL and its derivatives, DHL and its derivatives were evaluated against eight human leukemia cell lines. Cell lines were cultured in Iscove's Modified Dulbecco's Medium (IMDM) supplemented with 10%˜20% fetal bovine serum (FBS) according to culture conditions indicated by ATCC and 1% penicillin/streptomycin (Pen/Strep) at 37° C. and 5% CO2. The cells were seeded into 96-well plates and kept at a concentration of 0.5 million cells per mL. The samples were treated with DHL, Leucodine, DHL-Morpholine, DHL-Proline, DHL-Piperidine, and PTL at varying concentrations in triplicates. Cell viability was determined after incubating for 48 hours. The cells were stained with annexin V-fluorescein isothiocyanate or phycoeritrine (FITC/PE) and 7-aminoactinomycin (7-AAD) to detect phosphatidylserine exposition and cell permeability, respectively. At least 50,000 events were recorded per condition on either an LSR-II or LSR-Fortessa flow cytometer (BD Biosciences). Data analysis was conducted using FlowJo 9.6 software for Mac OS X (TreeStar). Cells that were negative for annexin V and 7-AAD were scored as viable.
(A flow cytometer gives signals particle by particle.)

Series [2] deals with U-937. The experiment in a line: Cytotoxicity, annexin V/7-AAD viability by flow cytometry, U-937. In kind it is cell-based, human. The note with it: U-937, 48 hours, drug range tested 1.25-160 μM. Here is the method:
as §1

The test system of series [3] is KG-1. Kind of series: Cytotoxicity, annexin V/7-AAD viability by flow cytometry, KG-1. In kind it is cell-based, human. The note with it: KG-1, 48 hours, drug range tested 1.25-160 μM. As for the experimental part: In order to assess the structure-activity relationship of DHL and its derivatives, DHL and its derivatives were evaluated against eight human leukemia cell lines. Cell lines were cultured in Iscove's Modified Dulbecco's Medium (IMDM) supplemented with 10%˜20% fetal bovine serum (FBS) according to culture conditions indicated by ATCC and 1% penicillin/streptomycin (Pen/Strep) at 37° C. and 5% CO2. […] Cell viability was determined after incubating for 48 hours.

The subject of series [4] is THP-1. Kind of series: Cytotoxicity, annexin V/7-AAD viability by flow cytometry, THP-1. The note with it: THP-1, 48 hours, drug range tested 1.25-160 μM. It counts as cell-based, human. Here is the method:
as §1

Series [5] deals with MV4-11. Kind of series: Cytotoxicity, annexin V/7-AAD viability by flow cytometry, MV4-11. In kind it is cell-based, human. The note with it: MV4-11, 48 hours, drug range tested 1.25-160 μM. As for the experimental part:
as §1

Series [6] concerns HL-60. The experiment in a line: Cytotoxicity, annexin V/7-AAD viability by flow cytometry, HL-60. In kind it is cell-based, human. The note with it: HL-60, 48 hours, drug range tested 1.25-160 μM. Here is the method: as §1
Series [7] has as its system MOLM-13. Kind of series: Cytotoxicity, annexin V/7-AAD viability by flow cytometry, MOLM-13. The note with it: MOLM-13, 48 hours, drug range tested 1.25-160 μM. In kind it is cell-based, human. As for the experimental part:
as §1

Series [8] has as its system TUR. Kind of series: Cytotoxicity, annexin V/7-AAD viability by flow cytometry, TUR. It counts as cell-based, human. The conditions noted are these: 48 hours, drug range tested 1.25-160 μM. Here is the method:
as §1

Series [9] deals with eight human leukemia cell lines.
Method: Cell lines were cultured in Iscove's Modified Dulbecco's Medium (IMDM) supplemented with 10%˜20% fetal bovine serum (FBS) according to culture conditions indicated by ATCC and 1% penicillin/streptomycin (Pen/Strep) at 37° C. and 5% CO2. The cells were seeded into 96-well plates and kept at a concentration of 0.5 million cells per mL. […] Cell viability was determined after incubating for 48 hours. The cells were stained with annexin V-fluorescein isothiocyanate or phycoeritrine (FITC/PE) and 7-aminoactinomycin (7-AAD) to detect phosphatidylserine exposition and cell permeability, respectively. At least 50,000 events were recorded per condition on either an LSR-II or LSR-Fortessa flow cytometer (BD Biosciences). Data analysis was conducted using FlowJo 9.6 software for Mac OS X (TreeStar). Cells that were negative for annexin V and 7-AAD were scored as viable.
In series [10] the test system is HSPA1A. Kind of series: Quantitative PCR of HSPA1A in MOLM-13 or MV-411 cells. In kind it is cell-based. The conditions noted are these: 20 μM, 6 hours, MOLM-13 and MV-411 cells. As for the experimental part:
(§2) (FIG. 8A) Graphical representation of the fold changes of HMOX-1 in MOLM-13 cells. Cells were seeded at 0.5 million cells per milliliter and subject to 20 μM of DHL, leucodine, DHL-proline, DHL-piperidine, DHL-morpholine, or parthenolide for 6 hours. RNA was then extracted and quantitative PCR was performed. Experiments were performed in triplicates. Lines represent mean for each specimen, with error bars representing the SD. Fold change was calculated by the delta-delta Ct method. […] (FIG. 8D) Immunoblot for MOLM-13 cells after 6 hours of treatment with either DHL or PTL with 10 or 20 μM. Blot was probed for phospho-p65 and p65 antibodies. Total p65 is shown as the loading control.
(§3) (FIG. 9A) Graphical representation of the fold changes of HMOX-1 in MV-411 cells. Cells were seeded at 0.5 million cells per milliliter and subject to 20 μM of DHL, leucodine, DHL-proline, DHL-piperidine, DHL-morpholine, or parthenolide for 6 hours. RNA was then extracted and quantitative PCR was performed. Experiments were performed in triplicates. Lines represent mean for each specimen, with error bars representing the SD. Fold change was calculated by the delta-delta Ct method. (FIG. 9B) Graphical representation of the fold changes of HSPA1A in MV-411 cells, with the same experimental setup and analysis as FIG. […].
(§4) To compare these intracellular effects of DHL and its derivatives, quantitative PCR was performed (FIG. 8 and FIG. 9). MOLM-13 or MV-411 cells were seeded at 0.5 million cells per milliliter. Cells were treated for 6 hours with 20 μM of DHL, Leucodine, DHL-Morpholine, DHL-Proline, DHL-Piperidine or PTL, and then collected. Total RNA was extracted using the Qiashredder and Qiagen Rneasy Mini kits. […] Quantitative PCR was performed using probes for HMOX-1 (Hs01110251_m1), HSPA1A (Hs00359163_s1), and NFKB1 (Hs00765730_m1). […] Single-plex real-time PCR was performed in triplicates in a StepOne plus RealTime PCR system and analyzed with the StepOne Software. Fold change was calculated using the 2-DDCT method described by Livak and Schmittgen.

Series [11] concerns HMOX1 (Heme oxygenase 1). The experiment in a line: Quantitative PCR of HMOX1 in MOLM-13 or MV-411 cells. In kind it is cell-based. The note with it: 20 μM, 6 hours, MOLM-13 and MV-411 cells. Here is the method: as §2, §3, §4
For series [12], the system named is NF-κB. Kind of series: Quantitative PCR of NF-κB transcript in MOLM-13 and MV-411 cells. In kind it is cell-based. The conditions noted are these: 20 μM, 6 hours. Here is the method: as §2
as §4, with “collected.” for “collected. Total RNA was extracted using the Qiashredder and Qiagen Rneasy Mini kits.”

`CC1=CC(=O)C2=C(C)CCC3C(CN4CCOCC4)C(=O)OC3C12` (stereo not drawn) [DHL-Morpholine]: the LD50 was above 160 µM in [1]; 74.7 µM in series [2]; 129 µM in series [3]; 54.4 µM in [4]; 21.1 µM in series [5]; 166 µM in [6]. The LD50 in [7] and in series [8] was above 160 µM in each case.
Turning to `CC1=CC(=O)C2=C(C)CCC3C(CN4CCCCC4)C(=O)OC3C12` (stereo not drawn) [DHL-Piperidine], the LD50 was above 160 µM in series [1]; above 160 µM in series [2]; 182 µM in [3]; 59.3 µM in series [4]; 66.9 µM in series [5]; 96.5 µM in [6]. Also, the LD50 in series [7] is 52.3 µM; in series [8], above 160 µM.
Consider `CC1=CC(=O)C2=C(C)CCC3C(CN4CCCC4C(=O)O)C(=O)OC3C12` (stereo not drawn) [DHL-Proline], for which the LD50 in series [1] is 28.1 µM; in series [2], 33.0 µM; in [3], 97.7 µM; in [4], 26.7 µM; in series [5], 23.3 µM; in [6], 50.2 µM. In addition, the LD50 is 20.6 µM in [7] and 35.9 µM in series [8]. Further, the “anti-leukemic activity / in vitro cytotoxicity” value in series [9] is reported as “most potent derivative”. Also, the “HSPA1A expression, fold change” value in series [10] was “upregulated HMOX1 and HSPA1A the most”. Further, the “HMOX1 expression, fold change” value in series [11] was “upregulated HMOX1 and HSPA1A the most”.
Regarding `CC1=CC(=O)C2=C(C)CC[C@@H]3[C@H](OC(=O)[C@H]3C)[C@@H]12` [Leucodine, leucodine], the LD50 is above 160 µM in series [1]; above 160 µM in series [2]; above 160 µM in [3]; 121 µM in series [4]; above 160 µM in [5]; above 160 µM in [6]. In addition, the LD50 is above 160 µM in [7] and 105 µM in series [8]. For the same compound, the “NF-κB transcript levels” value in series [12] is “slightly downregulated”. Further, the “anti-leukemic activity / in vitro cytotoxicity” value in [9] is listed as “not found to be active”. Besides, the “HSPA1A expression, fold change” value in series [10] is “upregulated”. In addition, the “HMOX1 expression, fold change” value in series [11] is “upregulated”.
